Experimental data: ChEMBL document CHEMBL2406908, “Re-engineering of the duocarmycin structural architecture enables bioprecursor development targeting CYP1A1 and CYP2W1 for biological activity” (J Med Chem, 2013)
Activity calls are given as the source filed them. The rule behind the calls is not given here.

Experiments:
CYP1A1 [1] = experiment: Potentiation factor, ratio of IC50 for wild type HEK293 cells to IC50 of HEK293 cells expressing CYP1A1; type: ADME, cell-based; details: human, wild type HEK293 cells and HEK293 cells expressing CYP1A1; read-out: Ratio IC50
CHO [2] = experiment: Antiproliferative activity against CHO cells expressing CYP1A1 assessed as growth inhibition after 96 hrs by MTT assay; type: functional, cell-based; details: Cricetulus griseus
CYP1A1 [3] = experiment: Potentiation factor, ratio of IC50 for wild type CHO cells to IC50 of CHO cells expressing CYP1A1; type: ADME, cell-based, Cricetulus griseus; details: chinese hamster, wild type CHO cells and CHO cells expressing CYP1A1; read-out: Ratio IC50
RT-112 [4] = experiment: Antiproliferative activity against human RT112 cells expressing CYP1A1 assessed as growth inhibition after 96 hrs by MTT assay; type: functional, cell-based; details: RT-112, 96 h
CHO [5] = experiment: Antiproliferative activity against CHO cells assessed as growth inhibition after 96 hrs by MTT assay; type: cell-based; details: Cricetulus griseus
HEK293 [6] = experiment: Antiproliferative activity against human HEK293 cells expressing CYP2W1 assessed as growth inhibition after 96 hrs by MTT assay; type: functional, cell-based; details: HEK293, 96 h
[7] = Antiproliferative activity against human EJ138 cells treated with extract obtained from 1 hr incubation of compound with control bactosome measured after 96 hrs by MTT assay; type: functional, cell-based
Liver = experiment: Drug metabolism in mouse liver homogenate at 100 uM up tp 120 mins by LC/MS analysis; type: ADME, tissue-based; details: tissue homogenate, 2 h
[8] = Antiproliferative activity against human EJ138 cells treated with extract obtained from 1 hr incubation of compound with CYP3A4 bactosome measured after 96 hrs by MTT assay; type: functional, cell-based
[9] = Potentiation factor, ratio of IC50 for human EJ138 cells treated with extract obtained from 1 hr incubation of compound with control bactosome to IC50 of human EJ138 treated with extract obtained from 1 hr incubation of compound with CYP2D6 bactosome; type: functional
[10] = Antiproliferative activity against human EJ138 cells treated with extract obtained from 1 hr incubation of compound with CYP1A2 bactosome measured after 96 hrs by MTT assay; type: functional, cell-based
[11] = Potentiation factor, ratio of IC50 for human EJ138 cells treated with extract obtained from 1 hr incubation of compound with control bactosome to IC50 of human EJ138 treated with extract obtained from 1 hr incubation of compound with CYP1A2 bactosome; type: functional
[12] = Potentiation factor, ratio of IC50 for human EJ138 cells treated with extract obtained from 1 hr incubation of compound with control bactosome to IC50 of human EJ138 treated with extract obtained from 1 hr incubation of compound with CYP3A4 bactosome; type: functional
[13] = Antiproliferative activity against human EJ138 cells treated with extract obtained from 1 hr incubation of compound with CYP2D6 bactosome measured after 96 hrs by MTT assay; type: functional, cell-based
[14] = Antiproliferative activity against human EJ138 cells treated with extract obtained from 1 hr incubation of compound with CYP1A1 bactosome measured after 96 hrs by MTT assay; type: functional, cell-based
[15] = Antiproliferative activity against human EJ138 cells after 96 hrs by MTT assay; type: functional, cell-based; details: EJ138, 96 h
[16] = Potentiation factor, ratio of IC50 for human EJ138 cells treated with extract obtained from 1 hr incubation of compound with control bactosome to IC50 of human EJ138 treated with extract obtained from 1 hr incubation of compound with CYP1A1 bactosome; type: functional
[17] = Potentiation factor, ratio of IC50 for human EJ138 cells treated with extract obtained from 1 hr incubation of compound with control bactosome to IC50 of human EJ138 treated with extract obtained from 1 hr incubation of compound with CYP1B1 bactosome; type: functional
[18] = Antiproliferative activity against human EJ138 cells treated with extract obtained from 1 hr incubation of compound with CYP1B1 bactosome measured after 96 hrs by MTT assay; type: functional, cell-based
[19] = Drug metabolism in mouse liver microsomes at 100 uM after 2 hrs by HPLC/mass spectrometry analysis in presence of NADPH; type: ADME, Microsome
HEK293 [20] = experiment: Induction of DNA damage in human HEK293 cells expressing CYP2W1 assessed as phosphorylation of gammaH2A.X at 0.5 to 5 uM after 48 hrs by Western blotting analysis; type: functional, cell-based
RT-112 [21] = experiment: Induction of cell death in human RT112 cells after 48 hrs at 0.5 to 5 uM by trypan blue assay; type: functional, cell-based
RT-112 [22] = experiment: Induction of DNA damage in human RT112 cells assessed as phosphorylation of gammaH2A.X at 0.5 to 5 uM after 48 hrs by Western blotting analysis; type: functional, cell-based
HEK293 [23] = experiment: Induction of cell death in human HEK293 cells expressing CYP2W1 t 0.5 to 5 uM after 48 hrs by trypan blue assay; type: functional, cell-based
HEK293 [24] = experiment: Induction of DNA damage in mock-transfected human HEK293 assessed as phosphorylation of gammaH2A.X at 0.5 to 5 uM after 48 hrs by Western blotting analysis; type: cell-based; details: hek293, 48 h
HEK293 [25] = experiment: Induction of cell death in mock-transfected human HEK293 cells t 0.5 to 5 uM after 48 hrs by trypan blue assay; type: cell-based; details: hek293, 48 h
HEK293 [26] = experiment: Antiproliferative activity against human HEK293 cells assessed as growth inhibition after 96 hrs by MTT assay; type: cell-based; details: HEK293, 96 h

Row | SMILES | selectivity ratio (CYP1A1 [1]) | IC50 (CHO [2]) | selectivity ratio (CYP1A1 [3]) | IC50 (RT-112 [4]) | IC50 (CHO [5]) | IC50 (HEK293 [6]) | further results
1 | CS(=O)(=O)c1cc(F)cc2cc(C(=O)N3CC(CCl)c4c3ccc3[nH]ccc43)[nH]c12 (stereo not drawn) | 0.9 | 4.1 µM | 0.8 | 7.7 µM | 3.2 µM | 12.2 µM | 
2 | COc1ccc2[nH]c(C(=O)N3CC(CCl)c4c3ccc3ccccc43)cc2c1 (stereo not drawn) |  | 0.96 µM |  | > 50 µM | > 50 µM | > 50 µM | IC50 [7]: 1.99 µM; Drug metabolism (Liver): Active; IC50 [8]: 1.04 µM; Ratio IC50 [9]: 0.79; IC50 [10]: 2.23 µM; Ratio IC50 [11]: 0.9; Ratio IC50 [12]: 1.91; IC50 [13]: 2.53 µM; IC50 [14]: 0.02 µM; IC50 [15]: 2.88 µM; Ratio IC50 [16]: 100; Ratio IC50 [17]: 1.3; IC50 [18]: 1.53 µM; Drug metabolism [19]: Active
3 | COc1cc2cc(C(=O)N3CC(CCl)c4c3ccc3[nH]ccc43)[nH]c2c(OC)c1OC (stereo not drawn) | 1.1 | 3.1 µM | 2.4 | 7 µM | 7.5 µM | 11.1 µM | Activity (HEK293 [20]): Active; Activity (RT-112 [21]): Active; Activity (RT-112 [22]): Active; Activity (HEK293 [23]): Active; Activity (HEK293 [24]): Non-toxic; Activity (HEK293 [25]): Non-toxic
4 | O=C(c1cc2cc(F)ccc2[nH]1)N1CC(CCl)c2c1ccc1[nH]ccc21 (stereo not drawn) | 21 | 0.09 µM | 251 | 11.1 µM | 22.6 µM | 0.5 µM | 
5 | O=C(c1cc2cc(F)cc(F)c2[nH]1)N1CC(CCl)c2c1ccc1[nH]ccc21 (stereo not drawn) | 1.1 | > 1 µM | < 21 | 12.3 µM | 21 µM | 9.1 µM | 
6 | O=C(c1cc2cc(F)c(F)cc2[nH]1)N1CC(CCl)c2c1ccc1[nH]ccc21 (stereo not drawn) | 2.6 | 0.23 µM | 80 | 1.8 µM | 18.4 µM | 3.7 µM | 
7 | O=C(c1cc2cc(O)ccc2[nH]1)N1CC(CCl)c2c1ccc1[nH]ccc21 (stereo not drawn) | 0.8 | 0.3 µM | 11 | 32.7 µM | 3.3 µM | 20.5 µM | 
8 | COc1ccc2[nH]c(C(=O)N3CC(CCl)c4c3cc(O)c3[nH]ccc43)cc2c1 (stereo not drawn) | 1.2 | 0.000624 µM | 0.2 | 0.000125 µM | 0.000167 µM | 0.000376 µM | IC50 (HEK293 [26]): 0.000453 µM
9 | O=C(c1cc2cc(Cl)ccc2[nH]1)N1CC(CCl)c2c1ccc1[nH]ccc21 (stereo not drawn) | 41.7 | < 0.001 µM | > 23200 | 0.7 µM | 23.2 µM | 0.3 µM | 
10 | COc1cc2cc(C(=O)N3CC(CCl)c4c3ccc3[nH]ccc43)[nH]c2cc1OC (stereo not drawn) | 1.3 | < 0.001 µM | > 3000 | 0.3 µM | 3 µM | 6.1 µM | Activity (HEK293 [20]): Active; Activity (RT-112 [21]): Active; Activity (RT-112 [22]): Active; Activity (HEK293 [23]): Active; Activity (HEK293 [24]): Non-toxic; Activity (HEK293 [25]): Non-toxic
11 | COc1ccc2[nH]c(C(=O)N3CC(CCl)c4c3cc(O)c3ccccc43)cc2c1 (stereo not drawn) | 0.2 | 102 µM | 1.9 | 151 µM | 194 µM | 641 µM | 
12 | COc1ccc2[nH]c(C(=O)N3CC(CCl)c4c3ccc3[nH]ccc43)cc2c1 (stereo not drawn) | 14.7 | < 0.001 µM | > 3200 | 0.2 µM | 3.2 µM | 0.6 µM | Activity (HEK293 [20]): Active; Activity (RT-112 [21]): Active; Activity (RT-112 [22]): Active; Activity (HEK293 [23]): Active; Activity (HEK293 [24]): Non-toxic; Activity (HEK293 [25]): Non-toxic
